Reference: patent US4017611A, “Control of insects with 3-hydroxymethacrylic acid methyl ester dimethylthionophosphate” (priority 1970, dated 1977)

Tested on: adult houseflies
Test: Gas action against adult houseflies
Format: in vivo, Musca domestica (housefly)
Conditions: 10 mg active substance, 2 liter glass cylinder
Protocol: Using a pipette 10 mg of active substance were placed on a watch glass which was then covered with a wire mesh and placed in a 2 liter glass cylinder. Immediately thereafter 30 houseflies were introduced into the container which was then sealed.
A comparative test between compound 1 and PHOSDRIN (Registered Trade Mark) carried out according to this method gave the following mortality periods in minutes for 10%, 50% and 100% kill of the test animals.

## COC(=O)C(C)=COP(=S)(OC)OC [Compound I, 3-hydroxymethacrylic acid methyl ester dimethylthionophosphate]
10% kill
  Mortality time for 10% of the houseflies: 5 min
50% kill
  Mortality time for 50% of the houseflies: 6 min
100% kill
  Mortality time for 100% of the houseflies: 25 min
